Test results taken from patent US8877748B2, “Heterocyclic fused anthraquinone derivatives, manufacturing method and pharmaceutical composition using thereof” (National Defense Medical Center, priority 2012, dated 2014).

Tests used:
UACC-257 = assay: NCI one-dose screening, melanoma UACC-257; format: cell-based, human; conditions: 10 μM
OVCAR-8 = assay: NCI one-dose screening, ovarian cancer OVCAR-8; format: cell-based, human; conditions: 10 μM
ACHN = assay: NCI one-dose screening, renal cancer ACHN; format: cell-based, human; conditions: 10 μM
SF-268 = assay: NCI one-dose screening, CNS cancer SF-268; format: cell-based, human; conditions: 10 μM
NCI-H522 = assay: NCI one-dose screening, non-small cell lung cancer NCI-H522; format: cell-based, human; conditions: 10 μM
HOP-92 = assay: NCI one-dose screening, non-small cell lung cancer HOP-92; format: cell-based, human; conditions: 10 μM
HS 578-T = assay: NCI one-dose screening, breast cancer HS 578-T; format: cell-based, human; conditions: 10 μM; Breast cancer
786-O = assay: NCI one-dose screening, renal cancer 786-O; format: cell-based, human; conditions: 10 μM
SK-MEL-2 = assay: NCI one-dose screening, melanoma SK-MEL-2; format: cell-based, human; conditions: 10 μM
SNB-75 = assay: NCI one-dose screening, CNS cancer SNB-75; format: cell-based, human; conditions: 10 μM
M14 = assay: NCI one-dose screening, melanoma M14; format: cell-based, human; conditions: 10 μM
K562cell line = assay: NCI one-dose screening, leukemia K562; format: cell-based, human; conditions: 10 μM
SR = assay: NCI one-dose screening, leukemia SR; format: cell-based, human; conditions: 10 μM
MDA, -MB-435 = assay: NCI one-dose screening, breast cancer MDA, -MB-435; format: cell-based, human; conditions: 10 μM; listed under Melanoma
human tumor cell lines = assay: NCI one-dose screening, Mean / Delta / Range of growth percent over all tested cell lines; format: cell-based; conditions: 10 μM
TK-10 = assay: NCI one-dose screening, renal cancer TK-10; format: cell-based, human; conditions: 10 μM
HCT-116 = assay: NCI one-dose screening, colon cancer HCT-116; format: cell-based, human; conditions: 10 μM
T-47D = assay: NCI one-dose screening, breast cancer T-47D; format: cell-based, human; conditions: 10 μM
BT-549 = assay: NCI one-dose screening, breast cancer BT-549; format: cell-based, human; conditions: 10 μM
SK-MEL-28 = assay: NCI one-dose screening, melanoma SK-MEL-28; format: cell-based, human; conditions: 10 μM
SNB-19 = assay: NCI one-dose screening, CNS cancer SNB-19; format: cell-based, human; conditions: 10 μM
[1] = tested on: PC-3 prostate cancer cell line; assay: SRB assay cell viability, PC-3 prostate cancer cell line; format: cell-based, human; conditions: Homo sapiens, PC-3 prostate cancer cell line, Table II prints no unit, μM printed, read-out: SRB assay: 50% inhibition of cancer cell proliferation of sample concentration (IC50) of PC-3 prostate cancer cell line
CAKI-1 = assay: NCI one-dose screening, renal cancer CAKI-1; format: cell-based, human; conditions: 10 μM
NCI-H460 = assay: NCI one-dose screening, non-small cell lung cancer NCI-H460; format: cell-based, human; conditions: 10 μM
MOLT-4 = assay: NCI one-dose screening, leukemia MOLT-4; format: cell-based, human; conditions: 10 μM
HOP-62 = assay: NCI one-dose screening, non-small cell lung cancer HOP-62; format: cell-based, human; conditions: 10 μM
PRMI-8226 cell line = assay: NCI one-dose screening, leukemia PRMI-8226; format: cell-based, human; conditions: 10 μM
NCl/ADR-RES = assay: NCI one-dose screening, breast cancer NCl/ADR-RES; format: cell-based, human; conditions: 10 μM; listed under Ovarian cancer
PC-3 = assay: NCI one-dose screening, prostate cancer PC-3; format: cell-based, human; conditions: 10 μM
A549/ATCC = assay: NCI one-dose screening, non-small cell lung cancer A549/ATCC; format: cell-based, human; conditions: 10 μM
U251 = assay: NCI one-dose screening, CNS cancer U251; format: cell-based, human; conditions: 10 μM
SK-OV-3 = assay: NCI one-dose screening, ovarian cancer SK-OV-3; format: cell-based, human; conditions: 10 μM
UACC-62 = assay: NCI one-dose screening, melanoma UACC-62; format: cell-based, human; conditions: 10 μM
MDA-MB-468 = assay: NCI one-dose screening, breast cancer MDA-MB-468; format: cell-based, human; conditions: 10 μM
UO-31 = assay: NCI one-dose screening, renal cancer UO-31; format: cell-based, human; conditions: 10 μM
COLO 205 = assay: NCI one-dose screening, colon cancer COLO 205; format: cell-based, human; conditions: 10 μM
RXF, 393 = assay: NCI one-dose screening, renal cancer RXF, 393; format: cell-based, human; conditions: 10 μM
MDA-MB-231/ATCC = assay: NCI one-dose screening, breast cancer MDA-MB-231/ATCC; format: cell-based, human; conditions: 10 μM
SN12C = assay: NCI one-dose screening, renal cancer SN12C; format: cell-based, human; conditions: 10 μM
LOX IMVI = assay: NCI one-dose screening, melanoma LOX IMVI; format: cell-based, human; conditions: 10 μM
OVCAR-3 = assay: NCI one-dose screening, ovarian cancer OVCAR-3; format: cell-based, human; conditions: 10 μM
SK-MEL-5 = assay: NCI one-dose screening, melanoma SK-MEL-5; format: cell-based, human; conditions: 10 μM
[2] = NCI one-dose screening, renal cancer A489; format: cell-based, human; conditions: 10 μM
KM12 = assay: NCI one-dose screening, colon cancer KM12; format: cell-based, human; conditions: 10 μM
HCT-15 = assay: NCI one-dose screening, colon cancer HCT-15; format: cell-based, human; conditions: 10 μM
MCF7 = assay: NCI one-dose screening, breast cancer MCF7; format: cell-based, human; conditions: 10 μM
HT29 = assay: NCI one-dose screening, colon cancer HT29; format: cell-based, human; conditions: 10 μM
IGROV1 = assay: NCI one-dose screening, ovarian cancer IGROV1; format: cell-based, human; conditions: 10 μM
MALME-3M = assay: NCI one-dose screening, melanoma MALME-3M; format: cell-based, human; conditions: 10 μM
DU145 = assay: NCI one-dose screening, prostate cancer DU145; format: cell-based, human; conditions: 10 μM
HL-60, TB = assay: NCI one-dose screening, leukemia HL-60, TB; format: cell-based, human; conditions: 10 μM
NCI-H23 = assay: NCI one-dose screening, non-small cell lung cancer NCI-H23; format: cell-based, human; conditions: 10 μM
HCC-2998 = assay: NCI one-dose screening, colon cancer HCC-2998; format: cell-based, human; conditions: 10 μM
SF-539 = assay: NCI one-dose screening, CNS cancer SF-539; format: cell-based, human; conditions: 10 μM
EKVX = assay: NCI one-dose screening, non-small cell lung cancer EKVX; format: cell-based, human; conditions: 10 μM
NCI-H226 = assay: NCI one-dose screening, non-small cell lung cancer NCI-H226; format: cell-based, human; conditions: 10 μM
OVCAR-5 = assay: NCI one-dose screening, ovarian cancer OVCAR-5; format: cell-based, human; conditions: 10 μM

In the case of `COc1ccc(Sc2cc3c(c4nsnc24)C(=O)c2ccccc2C3=O)cc1` [C41, 4-(4-methoxy-phenyl-thio)anthra[2,1-c] [1,2,5]thiadiazol-6,11-dione], the “Growth Percent UACC-257” value (UACC-257) is reported as 118.11%, the “Growth Percent OVCAR-8” value (OVCAR-8) is reported as 99.50% and the “Growth Percent ACHN” value (ACHN) is reported as 102.26%. For the same compound, the “Growth Percent SF-268” value (SF-268) was 94.81%, the “Growth Percent NCI-H522” value (NCI-H522) was 95.69% and the “Growth Percent HOP-92” value (HOP-92) was 91.38%. For the same compound, the “Growth Percent HS 578T” value (HS 578-T) was 96.71%, the “Growth Percent 786-0” value (786-O) was 94.93% and the “Growth Percent SK-MEL-2” value (SK-MEL-2) was 99.24%. For the same compound, the “Growth Percent SNB-75” value (SNB-75) was 79.05%, the “Growth Percent M14” value (M14) was 92.89% and the “Growth Percent K562” value (K562cell line) was 91.98%. The “Growth Percent SR” value (SR) was 101.71%, the “Growth Percent MDA-MB-435” value (MDA, -MB-435) was 118.61% and the “Growth Percent Delta” value (human tumor cell lines; delta over all cell lines) was 32.46%. The “Growth Percent Mean” value (human tumor cell lines; mean over all cell lines) was 1000.77%, the “Growth Percent Range” value (human tumor cell lines; range over all cell lines) was 80.45% and the “Growth Percent TK-10” value (TK-10) was 135.79%. The “Growth Percent HCT-116” value (HCT-116) was 94.64%, the “Growth Percent T-47D” value (T-47D) was 89.66% and the “Growth Percent BT-549” value (BT-549) was 92.92%. The “Growth Percent SK-MEL-28” value (SK-MEL-28) was 115.63%, the “Growth Percent SNB-19” value (SNB-19) was 113.97% and the IC50 [1] was greater than 15 µM. For the same compound, the “Growth Percent CAKI-1” value (CAKI-1) was 108.29%, the “Growth Percent NCI-H460” value (NCI-H460) was 107.16% and the “Growth Percent MOLT-4” value (MOLT-4) was 82.89%. The “Growth Percent HOP-62” value (HOP-62) was 95.20%, the “Growth Percent RPMI-8226” value (PRMI-8226 cell line) was 101.16% and the “Growth Percent NCI/ADR-RES” value (NCl/ADR-RES) was 97.60%. For the same compound, the “Growth Percent PC-3” value (PC-3) was 82.81%, the “Growth Percent A549/ATCC” value (A549/ATCC) was 103.32% and the “Growth Percent U251” value (U251) was 102.73%. For the same compound, the “Growth Percent SK-OV-3” value (SK-OV-3) was 106.18%, the “Growth Percent UACC-62” value (UACC-62) was 108.99% and the “Growth Percent MDA-MB-468” value (MDA-MB-468) was 112.95%. For the same compound, the “Growth Percent UO-31” value (UO-31) was 68.31%, the “Growth Percent COLO 205” value (COLO 205) was 112.25% and the “Growth Percent RXF 393” value (RXF, 393) was 109.28%. For the same compound, the “Growth Percent MDA-MB-231/ATCC” value (MDA-MB-231/ATCC) was 87.58%, the “Growth Percent SN12C” value (SN12C) was 106.54% and the “Growth Percent LOX IMVI” value (LOX IMVI) was 90.24%. For the same compound, the “Growth Percent OVCAR-3” value (OVCAR-3) was 109.57%, the “Growth Percent SK-MEL-5” value (SK-MEL-5) was 106.14% and the “Growth Percent A498” value [2] was 84.77%. For the same compound, the “Growth Percent KM12” value (KM12) was 101.28%, the “Growth Percent HCT-15” value (HCT-15) was 109.35% and the “Growth Percent MCF7” value (MCF7) was 93.78%. The “Growth Percent HT29” value (HT29) was 101.30%, the “Growth Percent IGROV1” value (IGROV1) was 103.17% and the “Growth Percent MALME-3M” value (MALME-3M) was 89.52%. The “Growth Percent DU145” value (DU145) was 112.48%, the “Growth Percent HL-60(TB)” value (HL-60, TB) was 102.73% and the “Growth Percent NCI-H23” value (NCI-H23) was 89.13%. The “Growth Percent HCC-2998” value (HCC-2998) was 106.85%, the “Growth Percent SF-539” value (SF-539) was 93.53% and the “Growth Percent EKVX” value (EKVX) was 148.76%. The “Growth Percent NCI-H226” value (NCI-H226) was 79.51% and the “Growth Percent OVCAR-5” value (OVCAR-5) was 103.00%.
